Test results reported in patent publication US20230104936A1, “TRPML MODULATORS” (Casma Therapeutics, Inc., priority 2019, published 2023).

Tested on: TFEB
Assay: TFEB nuclear translocation assay, HeLa wt cells
Format: cell-based
Settings: 2 hrs compound treatment, Table 1 does not say HeLa wt or TRPML1 KO
Summary of the method: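 Read-out is the ratio of TFEB immunofluorescence in the nucleus to that in a ring just outside it, measured by automated imaging. HeLa wt cells received compounds for 2 hrs at 37° C before fixation and staining; AC50 values come from this ratio.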

| Structure (SMILES) | AC50 (Homo sapiens, HeLa, 2 h) [µM] | AC50 [µM] |
| --- | --- | --- |
| O=S(=O)(Nc1ccccc1N1CCC(c2ccc(Cl)cc2F)CC1)c1cc(F)cc(F)c1 [Compound A-91, N-{2-[4-(4-chloro-2-fluorophenyl)piperidin-1-yl]phenyl}-3,5-difluorobenzene-1-sulfonamide] | ≥ 10 | – |
| CN(C)S(=O)(=O)c1ccc(S(=O)(=O)Nc2cc(F)ccc2N2CCC3(CC2)COC(C)(C)C3)cc1 [Compound A-605, N4-(2-{3,3-dimethyl-2-oxa-8-azaspiro[4.5]decan-8-yl}-5-fluorophenyl)-N1,N1-dimethylbenzene-1,4-disulfonamide] | ≤ 2 | – |
| CN(C)S(=O)(=O)c1ccc(S(=O)(=O)Nc2ccccc2N2CCC3(CCOCC3)CC2)cc1 [Compound A-524, N1,N1-dimethyl-N4-(2-{3-oxa-9-azaspiro[5.5]undecan-9-yl}phenyl)benzene-1,4-disulfonamide] | ≤ 2 | – |
| O=S(=O)(Nc1cc(Cl)ccc1N1CCCC2(CCCCO2)C1)c1ccc2c(c1)CCC2 (stereo not drawn) [Compound A-316, N-(5-chloro-2-{1-oxa-8-azaspiro[5.5]undecan-8-yl}phenyl)-2,3-dihydro-1H-indene-5-sulfonamide] | 2.01 to 8 | – |
| CN(C(=O)C1CCN(c2ccccc2NS(=O)(=O)c2ccc(S(=O)(=O)N(C)C)cc2)CC1)c1ccccc1 [Compound A-339, 1-{2-[4-(dimethylsulfamoyl)benzenesulfonamido]phenyl}-N-methyl-N-phenylpiperidine-4-carboxamide] | 2.01 to 8 | – |
| CN(C)S(=O)(=O)c1ccc(S(=O)(=O)N2CC(c3ccc(Cl)cc3F)Nc3ccccc32)cc1 (stereo not drawn) [Compound A-171, 4-{[3-(4-chloro-2-fluorophenyl)-1,2,3,4-tetrahydroquinoxalin-1-yl]sulfonyl}-N,N-dimethylbenzene-1-sulfonamide] | 2.01 to 8 | – |
| CN(C)S(=O)(=O)c1ccc(S(=O)(=O)Nc2ccccc2N2C3CC2CN(c2ccc(Cl)cc2F)C3)cc1 [Compound A-28, N4-{2-[3-(4-chloro-2-fluorophenyl)-3,6-diazabicyclo[3.1.1]heptan-6-yl]phenyl}-N1,N1-dimethylbenzene-1,4-disulfonamide] | – | ≤ 2 |
| COCC1(C)CCN(c2ccccc2NS(=O)(=O)Cc2ccccc2C)CC1 [Compound A-592, N-{2-[4-(methoxymethyl)-4-methylpiperidin-1-yl]phenyl}-1-(2-methylphenyl)methanesulfonamide] | 8.01 to 9.99 | – |
| CN(C)S(=O)(=O)c1ccc(S(=O)(=O)Nc2ccccc2N2CCC(COC(F)(F)CF)CC2)cc1 [Compound A-797, N1,N1-dimethyl-N4-(2-{4-[(1,1,2-trifluoroethoxy)methyl]piperidin-1-yl}phenyl)benzene-1,4-disulfonamide] | ≤ 2 | – |
| COCC1(F)CCN(c2ccccc2NS(=O)(=O)c2ccc(S(=O)(=O)N(C)C)cc2)CC1 [Compound A-686, N4-[2-[4-fluoro-4-(methoxymethyl)piperidin-1-yl]phenyl}-N1,N1-dimethylbenzene-1,4-disulfonamide] | ≤ 2 | – |
| COCC1(C)CCN(c2ccccc2NS(=O)(=O)C2(c3ccccc3)CC2)CC1 [Compound A-649, N-{2-[4-(methoxymethyl)-4-methylpiperidin-1-yl]phenyl}-1-phenylcyclopropane-1-sulfonamide] | 2.01 to 8 | – |
| CN(C)S(=O)(=O)c1ccc(S(=O)(=O)Nc2cccc(F)c2N2CCC(CN3CCC(F)(F)C3)CC2)cc1 [Compound A-774, N4-(2-{4-[(3,3-difluoropyrrolidin-1-yl)methyl]piperidin-1-yl}-3-fluorophenyl)-N1,N1-dimethylbenzene-1,4-disulfonamide] | ≤ 2 | – |
| CP(C)(=O)c1ccc(S(=O)(=O)Nc2cc(Cl)ccc2N2CCOCC2)cc1 [Compound A-284, N-[5-chloro-2-(morpholin-4-yl)phenyl]-4-(dimethylphosphoryl)benzene-1-sulfonamide] | ≥ 10 | – |
| CS(=O)(=O)c1ccc(S(=O)(=O)Nc2cccc(Cl)c2N2CCOCC2)cc1 [Compound A-275, N-[3-chloro-2-(morpholin-4-yl)phenyl]-4-methanesulfonylbenzene-1-sulfonamide] | ≥ 10 | – |
| O=C1COCCN1c1ccc(Cl)cc1NS(=O)(=O)c1ccc2c(c1)CCC2 [Compound A-326, N-[5-chloro-2-(3-oxomorpholin-4-yl)phenyl]-2,3-dihydro-1H-indene-5-sulfonamide] | ≥ 10 | – |
| CN(C)S(=O)(=O)c1ccc(S(=O)(=O)Nc2ccccc2N2CCC3(CCCO3)CC2)cc1 [Compound A-584, N1,N1-dimethyl-N4-(2-{1-oxa-8-azaspiro[4.5]decan-8-yl}phenyl)benzene-1,4-disulfonamide] | ≤ 2 | – |
| C[C@@H]1CN(CC2CCN(c3ccccc3NS(=O)(=O)c3cnn(CC4CC4)c3)CC2)C[C@H](C)O1 [Compound A-772, 1-(cyclopropylmethyl)-N-[2-(4-[(2R,6S)-2,6-dimethylmorpholin-4-yl]methylpiperidin-1-yl)phenyl]-1H-pyrazole-4-sulfonamide] | 8.01 to 9.99 | – |

| Structure (SMILES) | AC50 (Homo sapiens, HeLa, 2 h) [µM] | AC50 [µM] |
| --- | --- | --- |
| COC(C)C1(C)CCN(c2ccccc2NS(=O)(=O)c2ccc(S(=O)(=O)N(C)C)cc2)CC1 (stereo not drawn) [Compound A-741, N4-{2-[4-(1-methoxyethyl)-4-methylpiperidin-1-yl]phenyl}-N1,N1-dimethylbenzene-1,4-disulfonamide] | ≤ 2 | – |
| CN(C)S(=O)(=O)c1ccc(S(=O)(=O)Nc2ccccc2N2CCC(C3(O)CC3)CC2)cc1 [Compound A-433, N4-{2-[4-(1-hydroxycyclopropyl)piperidin-1-yl]phenyl}-N1,N1-dimethylbenzene-1,4-disulfonamide] | 2.01 to 8 | – |
| CC(c1cc(Cl)cnc1N1CCC(CN2CCC(F)(F)CC2)CC1)S(=O)(=O)c1ccc(S(=O)(=O)N(C)C)cc1 (single isomer, unassigned) [Compound A-978, 4-((1-(5-chloro-2-(4-((4,4-difluoropiperidin-1-yl)methyl)piperidin-1-yl)pyridin-3-yl)ethyl)sulfonyl)-N,N-dimethylbenzenesulfonamide] | ≤ 2 | – |
| C[C@H]1CN(CC2CCN(c3c(F)cccc3NS(=O)(=O)c3ccc(S(=O)(=O)N(C)C)cc3)CC2)C[C@H](C)O1 [Compound A-826, N4-[2-(4-{[(2S,6S)-2,6-dimethylmorpholin-4-yl]methyl}piperidin-1-yl)-3-fluorophenyl]-N1,N1-dimethylbenzene-1,4-disulfonamide] | ≤ 2 | – |
| CN(C)S(=O)(=O)c1ccc(S(=O)(=O)Nc2ccccc2N2CCC3(CC2)CN(Cc2ccccc2)c2cc(F)ccc23)cc1 [Compound A-304, N4-(2-{1-benzyl-6-fluoro-1,2-dihydrospiro[indole-3,4′-piperidin]-1′-yl}phenyl)-N1,N1-dimethylbenzene-1,4-disulfonamide] | ≤ 2 | – |
| CC1(C)CC2(CCN(c3ccccc3NS(=O)(=O)c3cnn(C4CCC4)c3)CC2)CO1 [Compound A-666, 1-cyclobutyl-N-(2-{3,3-dimethyl-2-oxa-8-azaspiro[4.5]decan-8-yl}phenyl)-1H-pyrazole-4-sulfonamide] | 2.01 to 8 | – |
| CS(=O)(=O)c1ccc(S(=O)(=O)Nc2ccccc2N2CCC(c3ccc(F)cc3F)CC2)cc1 [Compound A-100, N-{2-[4-(2,4-difluorophenyl)piperidin-1-yl]phenyl}-4-methanesulfonylbenzene-1-sulfonamide] | ≤ 2 | – |
| CN(C)S(=N)(=O)c1ccc(S(=O)(=O)Nc2ccccc2N2CCC(O)(c3ccc(Cl)cc3F)CC2)cc1 (stereo not drawn) [Compound A-143, 4-({2-[4-(4-chloro-2-fluorophenyl)-4-hydroxypiperidin-1-yl]phenyl}sulfamoyl)-N,N-dimethylbenzene-1-sulfonoimidamide] | ≤ 2 | – |
| CN1CC2(CCN(c3ccccc3N(C)S(=O)(=O)c3ccc(S(C)(=O)=O)cc3)CC2)c2ccc(F)cc21 [Compound A-307, N-(2-{6-fluoro-1-methyl-1,2-dihydrospiro[indole-3,4′-piperidin]-1′-yl}phenyl)-4-methanesulfonyl-N-methylbenzene-1-sulfonamide] | 2.01 to 8 | – |
| COc1ccc(S(=O)(=O)Nc2ccccc2N2CCN(Cc3ccc(F)cc3F)CC2)cc1 [Compound A-194, N-(2-{4-[(2,4-difluorophenyl)methyl]piperazin-1-yl}phenyl)-4-methoxybenzene-1-sulfonamide] | ≥ 10 | – |
| O=C1COCCN1c1c(Cl)cccc1NS(=O)(=O)c1ccc2c(c1)CCC2 [Compound A-297, N-[3-chloro-2-(3-oxomorpholin-4-yl)phenyl]-2,3-dihydro-1H-indene-5-sulfonamide] | ≥ 10 | – |
| O=S(=O)(Nc1cc(Cl)ccc1N1CCCC12CCOC2)c1ccc2c(c1)CCC2 (stereo not drawn) [Compound A-346, N-(5-chloro-2-{7-oxa-1-azaspiro[4.4]nonan-1-yl}phenyl)-2,3-dihydro-1H-indene-5-sulfonamide] | ≤ 2 | – |
| Cc1ccc(NS(=O)(=O)c2ccccc2N2CCC(c3ccc(Cl)cc3F)CC2)cc1 [Compound A-111, 2-(4-(4-chloro-2-fluorophenyl)piperidin-1-yl)-N-(p-tolyl)benzenesulfonamide] | ≥ 10 | – |
| CS(=O)(=O)c1ccc(S(=O)(=O)Nc2ccccc2N2CCC(c3ccc(Cl)cc3F)CC2)cc1 [Compound A-98, N-{2-[4-(4-chloro-2-fluorophenyl)piperidin-1-yl]phenyl}-4-methanesulfonylbenzene-1-sulfonamide] | ≤ 2 | – |
| CN(C)S(=O)(=O)c1ccc(S(=O)(=O)Nc2ccccc2N2CCC(C3CCOCC3)CC2)cc1 [Compound A-548, N1,N1-dimethyl-N4-{2-[4-(oxan-4-yl)piperidin-1-yl]phenyl}benzene-1,4-disulfonamide] | ≤ 2 | – |
| CC(c1cc(Cl)cnc1N1CCC(CN2CCC(F)(F)CC2)CC1)S(=O)(=O)c1ccc(S(=O)(=O)N(C)C)cc1 (single isomer, unassigned) [Compound A-979, 4-((1-(5-chloro-2-(4-((4,4-difluoropiperidin-1-yl)methyl)piperidin-1-yl)pyridin-3-yl)ethyl)sulfonyl)-N,N-dimethylbenzenesulfonamide] | – | 2.01 to 8 |
